Measurements taken from patent US9783536B2, “Nitrogen-containing heterocyclic compound or salt thereof” (FUJIFILM Corporation, priority 2013, dated 2017).
Like-named read-outs stand apart in the source and are kept apart here.

Assays:
human PI3Kα protein = biological target: T1, human PI3Kα protein (Homo sapiens, UniProt P42336); test: PI3Kα enzyme assay (ADP-Glo); type: biochemical; conditions: read-out: PI3Kα enzyme inhibitory activity
T1 construct: purchased Carna Biosciences, Inc; host or cells: baculovirus expression system
T1 sequence (P42336 whole entry): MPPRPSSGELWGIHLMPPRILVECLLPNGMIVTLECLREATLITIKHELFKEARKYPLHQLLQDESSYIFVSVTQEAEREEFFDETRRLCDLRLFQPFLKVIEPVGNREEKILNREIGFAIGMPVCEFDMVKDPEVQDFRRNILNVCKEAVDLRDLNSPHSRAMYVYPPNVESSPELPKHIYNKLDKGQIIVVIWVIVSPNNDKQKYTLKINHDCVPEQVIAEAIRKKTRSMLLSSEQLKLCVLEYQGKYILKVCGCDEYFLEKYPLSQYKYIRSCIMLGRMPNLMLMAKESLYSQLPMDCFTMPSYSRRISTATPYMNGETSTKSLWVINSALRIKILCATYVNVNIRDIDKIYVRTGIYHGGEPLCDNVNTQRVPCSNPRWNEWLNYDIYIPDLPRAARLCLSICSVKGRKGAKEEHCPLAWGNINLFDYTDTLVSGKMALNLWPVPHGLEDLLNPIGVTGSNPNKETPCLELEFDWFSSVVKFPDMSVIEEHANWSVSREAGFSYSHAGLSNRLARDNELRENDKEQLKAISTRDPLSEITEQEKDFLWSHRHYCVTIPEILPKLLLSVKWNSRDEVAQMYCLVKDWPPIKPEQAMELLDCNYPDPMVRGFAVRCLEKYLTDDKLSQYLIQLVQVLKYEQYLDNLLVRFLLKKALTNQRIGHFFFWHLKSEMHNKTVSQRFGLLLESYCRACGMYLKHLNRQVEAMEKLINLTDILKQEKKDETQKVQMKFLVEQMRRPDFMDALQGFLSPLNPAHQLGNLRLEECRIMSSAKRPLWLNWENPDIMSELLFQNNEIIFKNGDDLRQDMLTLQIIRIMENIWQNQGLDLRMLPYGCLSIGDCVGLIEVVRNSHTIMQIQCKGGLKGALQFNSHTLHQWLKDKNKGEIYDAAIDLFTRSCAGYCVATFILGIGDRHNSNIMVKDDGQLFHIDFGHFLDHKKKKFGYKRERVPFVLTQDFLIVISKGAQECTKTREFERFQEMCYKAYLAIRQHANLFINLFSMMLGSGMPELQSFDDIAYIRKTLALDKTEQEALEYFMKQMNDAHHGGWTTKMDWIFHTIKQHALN
T1 sequence (P27986 whole entry partner): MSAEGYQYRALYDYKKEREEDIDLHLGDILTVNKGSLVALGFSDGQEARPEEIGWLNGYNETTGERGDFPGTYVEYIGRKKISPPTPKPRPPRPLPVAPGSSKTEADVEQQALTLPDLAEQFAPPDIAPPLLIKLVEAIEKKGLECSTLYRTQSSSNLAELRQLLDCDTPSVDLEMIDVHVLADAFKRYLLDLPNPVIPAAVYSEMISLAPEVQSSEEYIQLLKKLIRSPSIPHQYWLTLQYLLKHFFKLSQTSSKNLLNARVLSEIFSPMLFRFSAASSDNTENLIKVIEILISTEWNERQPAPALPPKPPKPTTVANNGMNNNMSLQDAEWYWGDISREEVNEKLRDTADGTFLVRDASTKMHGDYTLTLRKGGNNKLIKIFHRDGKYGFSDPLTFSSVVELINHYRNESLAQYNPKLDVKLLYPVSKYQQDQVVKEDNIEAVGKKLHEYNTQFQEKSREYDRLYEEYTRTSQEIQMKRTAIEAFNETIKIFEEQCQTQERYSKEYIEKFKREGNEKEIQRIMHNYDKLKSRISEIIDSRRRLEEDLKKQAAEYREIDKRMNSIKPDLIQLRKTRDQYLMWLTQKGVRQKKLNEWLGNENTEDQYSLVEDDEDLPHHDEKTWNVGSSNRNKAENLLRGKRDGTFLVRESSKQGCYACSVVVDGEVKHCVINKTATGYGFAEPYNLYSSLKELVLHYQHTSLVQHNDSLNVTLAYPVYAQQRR
How it was run: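 Biotinylated human PI3Kα (baculovirus-expressed, 4.5 nmol/L) pre-incubated 15 min with compound in Tris-HCl pH 7.5, MgCl2, BSA; reaction 60 min at 25° C with 50 μmol/L PIP2 and 100 μmol/L ATP final. ADP quantified by ADP-Glo luminescence; IC50 calculated.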

[1] = biological target: T2, GST fusion human ERK2 protein (Homo sapiens, UniProt P28482); test: ERK2 enzyme assay (1); type: biochemical; conditions: read-out: ERK2 enzyme inhibitory activity (1)
T2 construct: purchased Carna Biosciences, Inc; host or cells: E. coli expression system
T2 sequence (P28482 whole entry, the tested form may be a part): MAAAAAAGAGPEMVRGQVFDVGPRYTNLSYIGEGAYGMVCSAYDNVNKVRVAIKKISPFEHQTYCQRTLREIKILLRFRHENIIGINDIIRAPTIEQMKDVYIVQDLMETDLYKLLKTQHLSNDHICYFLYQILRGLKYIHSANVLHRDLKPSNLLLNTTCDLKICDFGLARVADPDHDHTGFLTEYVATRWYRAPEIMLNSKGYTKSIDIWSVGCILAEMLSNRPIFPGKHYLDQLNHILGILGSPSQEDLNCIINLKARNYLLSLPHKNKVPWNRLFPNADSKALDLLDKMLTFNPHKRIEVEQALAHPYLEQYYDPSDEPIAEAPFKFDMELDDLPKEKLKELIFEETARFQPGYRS
How it was run: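 Enzyme (2.5 nmol/L, E. coli-expressed) preincubated with compound 15 min at room temperature in HEPES/MgCl2/DTT/Brij35 buffer, pH 7.5; reaction with 4.25 μmol/L FL-Peptide 8 and 43.1 μmol/L ATP for 120 min at 25 °C. Phosphorylated peptide fraction quantified by mobility-shift separation after EDTA stop; IC50 calculated.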

[2] = biological target: T2, GST fusion human ERK2 protein; test: ERK2 enzyme assay (2); type: biochemical; conditions: read-out: ERK2 enzyme inhibitory activity (2)
How it was run: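 GST-tagged human ERK2 expressed in E. coli (1.25 nmol/L) was preincubated with compound for 15 min at room temperature in pH 7.5 Hepes buffer with MgCl2, DTT and Brij35. Reaction with FL-Peptide 8 (final 4.25 μmol/L) and ATP (final 1 mmol/L) ran 120 min at 25 °C; EDTA stopped it, and phosphorylated peptide was quantified by mobility-shift separation to derive IC50.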

CHO-K1 cells = test: CHO cell toxicity test; type: cell-based, Chinese hamster; conditions: Cricetulus griseus; CHO-K1 cells, 24 hours culture with compound, CellTiter-Glo; read-out: IC50 value (concentration at which the number of viable cells was suppressed to 50% or less)
How it was run: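 CHO-K1 cells were cultured 24 h, then exposed 24 h to compound at final 25.00 to 0.20 μmol/L in F-12 with 2% FCS. Viability read by CellTiter-Glo luminescence; inhibition % = 100 − (treated/untreated signal)×100.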

[3] = 4.5 nmol/L PI3Kα, PIP2 50 μmol/L, ATP 100 μmol/L
[4] = 2.5 nmol/L ERK2, ATP 43.1 μmol/L

In the case of `CC(C)c1nnc(Nc2ccc3ncc(-c4cnn(CCCN5CCCC5)c4)cc3n2)s1` [Example 0365], the IC50 (human PI3Kα protein) is reported as < 1000 nM, the IC50 ([1]; ERK2 enzyme assay (1)) is reported as < 1000 nM and the IC50 ([2]; ERK2 enzyme assay (2)) is reported as < 1000 nM. For the same molecule, the IC50 (CHO-K1 cells) was ≥ 25000 nM.
For `Cn1cc(-c2cnc3ccc(Nc4nnc(CC5CCCO5)s4)nc3c2)cn1` (stereo not drawn) [Example 0241], the IC50 (human PI3Kα protein) was 1000 to 10000 nM, the IC50 ([1]; ERK2 enzyme assay (1)) was < 1000 nM and the IC50 ([2]; ERK2 enzyme assay (2)) was < 1000 nM. For the same molecule, the IC50 (CHO-K1 cells) was ≥ 25000 nM.
`CN1CCCC1c1nnc(Nc2ccc3ncc(-c4cnn(C)c4)cc3n2)s1` (stereo not drawn) [Example 0247, N-(7-(1-methyl-1H-pyrazol-4-yl)-1,5-naphthyridin-2-yl)-5-(1-methylpyrrolidin-2-yl)-1,3,4-thiadiazole-2-amine] was tested, and the IC50 (human PI3Kα protein) was 1000 to 10000 nM, the IC50 ([1]; ERK2 enzyme assay (1)) was < 1000 nM and the IC50 ([2]; ERK2 enzyme assay (2)) was < 1000 nM. For the same molecule, the IC50 (CHO-K1 cells) was ≥ 25000 nM.
For `Cc1cnnc(Nc2ccc3ncc(-c4cnn(CCCN5CCCC5)c4)cc3n2)c1` [Example 0140], the IC50 (human PI3Kα protein; [3]) was < 1000 nM, the IC50 [1, 4] was < 1000 nM and the IC50 ([2]; 1.25 nmol/L ERK2, ATP 1 mmol/L) was < 1000 nM. The IC50 (CHO-K1 cells) was ≥ 25000 nM.
For `COCc1cnnc(Nc2ccc3ncc(-c4cnn(CCCN5CCCC5)c4)cc3n2)c1` [Example 0018], the IC50 (human PI3Kα protein; [3]) was < 1000 nM, the IC50 [1, 4] was < 1000 nM and the IC50 ([2]; 1.25 nmol/L ERK2, ATP 1 mmol/L) was < 1000 nM. For the same molecule, the IC50 (CHO-K1 cells) was ≥ 25000 nM.
`CC(C)c1cnnc(Nc2ccc3ncc(-c4cnn(CCCO)c4)cc3n2)c1` [Example 0473] was tested, and the IC50 (human PI3Kα protein) was < 1000 nM, the IC50 ([1]; ERK2 enzyme assay (1)) was < 1000 nM and the IC50 ([2]; ERK2 enzyme assay (2)) was < 1000 nM. The IC50 (CHO-K1 cells) was ≥ 25000 nM.
